From patent US20260347319A1, “YAP/TAZ-TEAD ONCOPROTEINS INHIBITORS” (BridGene Biosciences, Inc., priority 2022, published 2026)

Test system: TEAD1
Assay: MCF-7 TEAD1-luciferase reporter assay (MCF7-TEAD-Luc)
Type: cell-based
Conditions: MCF7 cells, overnight; for IC50: Homo sapiens; for TEAD1-Luc MCF7: Max Inhibition: % of DMSO-treated control
Experimental: The ability of compounds to inhibit TEAD-dependent transcription was assessed in the MCF7-TEAD-Luc reporter assay (BPS #60618). Cells were seeded at 10,000 cells in 200 μL per well into white wall, clear bottom 96-well plates (Corning #3610) and incubated at 37° C. for 24 hours, then treated with serial diluted compounds overnight, and luciferase signal was measured using the ONE-Step Luciferase Assay System (BPS #60690) using an EnSight Multimode plate reader (PerkinElmer, model #MLDHH34000000, integration time 100 ms) with Kaleido 3.0. software. For data analysis, dose-dependent curves were plotted as “% inhibition” (% of DMSO-treated control wells), and were fitted by four-parametric model in GraphPad Prism to obtain IC50 values.

IC50	SMILES	TEAD1-Luc MCF7: Max Inhibition
> 500 nM	C=CC(=O)N1C[C@H](C)[C@@H](/C=C/c2ccc(C(F)(F)F)cc2)C1 (stereo in doubt) [Example 40, 1-[(3R*,4R*)-3-methyl-4-{2-[4-(trifluoromethyl)phenyl]ethenyl}pyrrolidin-1-yl]prop-2-en-1-one]	A (A ≥ 75%)
≤ 10 nM	C=CC(=O)N1CC(C/C=C/c2cc(C(F)(F)F)on2)C1 [Example 2, 1-{3-[(2E)-3-[5-(trifluoromethyl)-1,2-oxazol-3-yl]prop-2-en-1-yl]azetidin-1-yl}prop-2-en-1-one]	A (A ≥ 75%)
≤ 10 nM	C=CC(=O)N1CC(/C=C/c2ccc(C(F)(F)F)c(OC)c2)C1 [Example 3, 1-{3-[(E)-2-[3-methoxy-4-(trifluoromethyl)phenyl]ethenyl]azetidin-1-yl}prop-2-en-1-one]	B (75% > B ≥ 50%)
≤ 10 nM	C=CC(=O)N1CC(/C=C/c2ccc(C(F)(F)F)c(F)c2)C1 [Example 4, 1-{3-[(E)-2-[3-fluoro-4-(trifluoromethyl)phenyl]ethenyl]azetidin-1-yl}prop-2-en-1-one]	A (A ≥ 75%)
10 to 100 nM	C=CC(=O)N1CCC(/C=C/c2ccc(C(F)(F)F)cc2)CC1 [Example 6]	B (75% > B ≥ 50%)
≤ 10 nM	C=CC(=O)N1CC(F)(/C=C/c2cc(C(F)(F)F)on2)C1 [Example 7, (E)-1-(3-fluoro-3-(2-(5-(trifluoromethyl)isoxazol-3-yl)vinyl)azetidin-1-yl)prop-2-en-1-one]	A (A ≥ 75%)
≤ 10 nM	C=CC(=O)N1CC(F)(/C=C\c2cc(C(F)(F)F)on2)C1 [Example 8, (Z)-1-(3-fluoro-3-(2-(5-(trifluoromethyl)isoxazol-3-yl)vinyl)azetidin-1-yl)prop-2-en-1-one]	A (A ≥ 75%)
≤ 10 nM	C=CC(=O)N1CC(C)(/C=C/c2cc(C(F)(F)F)on2)C1 [Example 16, 1-(3-methyl-3-(2-(5-(trifluoromethyl)isoxazol-3-yl)vinyl)azetidin-1-yl)prop-2-en-1-one]	A (A ≥ 75%)
≤ 10 nM	C=CC(=O)N1CC(/C=C/c2ccc(C(F)(F)F)cc2)(OC)C1 [Example 17]	B (75% > B ≥ 50%)
≤ 10 nM	C=CC(=O)N1CC(C)(/C=C/c2ccc(C(F)(F)F)cc2)C1 [Example 18]	A (A ≥ 75%)
10 to 100 nM	C=CC(=O)N1CC(/C=C/c2ccc(C(F)(F)F)cc2OC)C1 [Example 19, 1-(3-(2-methoxy-4-(trifluoromethyl)styryl)azetidin-1-yl)prop-2-en-1-one]	C (50% > C ≥ 2%)
100 to 500 nM	C=CC(=O)N1CC2(CC(/C=C/c3ccc(C(F)(F)F)cc3)C2)C1 [Example 20]	B (75% > B ≥ 50%)
10 to 100 nM	C=CC(=O)N1CC2(CC(/C=C/c3cc(C(F)(F)F)on3)C2)C1 [Example 22, 1-{6-[(E)-2-[5-(trifluoromethyl)-1,2-oxazol-3-yl]ethenyl]-2-azaspiro[3.3]heptan-2-yl}prop-2-en-1-one]	B (75% > B ≥ 50%)
10 to 100 nM	C=CC(=O)N1CC2(CC(/C=C\c3cc(C(F)(F)F)on3)C2)C1 [Example 23, 1-{6-[(Z)-2-[5-(trifluoromethyl)-1,2-oxazol-3-yl]ethenyl]-2-azaspiro[3.3]heptan-2-yl}prop-2-en-1-one]	B (75% > B ≥ 50%)
> 500 nM	C=CC(=O)N1CC2(CCC(/C=C/c3cc(C(F)(F)F)on3)CC2)C1 [Example 24, 1-{7-[(E)-2-[5-(trifluoromethyl)-1,2-oxazol-3-yl]ethenyl]-2-azaspiro[3.5]nonan-2-yl}prop-2-en-1-one]	C (50% > C ≥ 2%)
100 to 500 nM	C=CC(=O)N1CC2(CCC(/C=C\c3cc(C(F)(F)F)on3)CC2)C1 [Example 25, 1-{7-[(Z)-2-[5-(trifluoromethyl)-1,2-oxazol-3-yl]ethenyl]-2-azaspiro[3.5]nonan-2-yl}prop-2-en-1-one]	B (75% > B ≥ 50%)
10 to 100 nM	C=CC(=O)N1CC(/C=C\c2cc(C(F)(F)F)on2)C1 [Example 26, 1-{3-[(Z)-2-[5-(trifluoromethyl)-1,2-oxazol-3-yl]ethenyl]azetidin-1-yl}prop-2-en-1-one]	B (75% > B ≥ 50%)
100 to 500 nM	C=CC(=O)N1C[C@@H](CC)[C@H](/C=C\c2ccc(C(F)(F)F)cc2)C1 [Example 31, 1-{3-ethyl-4-[(Z)-2-[4-(trifluoromethyl)phenyl]ethenyl]pyrrolidin-1-yl}prop-2-en-1-one]	A (A ≥ 75%)
100 to 500 nM	C=CC(=O)N1C[C@@H](CC)[C@H](/C=C/c2ccc(C(F)(F)F)cc2)C1 [Example 32, 1-{3-ethyl-4-[(E)-2-[4-(trifluoromethyl)phenyl]ethenyl]pyrrolidin-1-yl}prop-2-en-1-one]	A (A ≥ 75%)

IC50	SMILES	TEAD1-Luc MCF7: Max Inhibition
10 to 100 nM	C=CC(=O)N1CCC(/C=C/c2ccc(C(F)(F)F)cc2)(OC)C1 (centres unmarked) [Example 35, (E)-1-(3-methoxy-3-(4-(trifluoromethyl)styryl)pyrrolidin-1-yl)prop-2-en-1-one]	A (A ≥ 75%)
10 to 100 nM	C=CC(=O)N1CC(C#N)(/C=C/c2ccc(C(F)(F)F)cc2)C1 [Example 37]	A (A ≥ 75%)
10 to 100 nM	C=CC(=O)N1CC2(CC=C(c3ccc(C(F)(F)F)cc3)CC2)C1 [Example 46, 1-(7-(4-(trifluoromethyl)phenyl)-2-azaspiro[3.5]non-6-en-2-yl)prop-2-en-1-one]	B (75% > B ≥ 50%)
≤ 10 nM	C=CC(=O)N1CC2(C=C(c3ccc(C(F)(F)F)cc3)CC2)C1 [Example 47, 1-(6-(4-(trifluoromethyl)phenyl)-2-azaspiro[3.4]oct-5-en-2-yl)prop-2-en-1-one]	C (50% > C ≥ 2%)
100 to 500 nM	C=CC(=O)N1CC2(CC=C(c3ccc(C(F)(F)F)cc3)C2)C1 [Example 48, 1-(6-(4-(trifluoromethyl)phenyl)-2-azaspiro[3.4]oct-6-en-2-yl)prop-2-en-1-one]	B (75% > B ≥ 50%)
100 to 500 nM	C=CC(=O)N1CC(c2cc3ccc(C(F)(F)F)cc3o2)C1 [Example 49, 1-{3-[6-(trifluoromethyl)-1-benzofuran-2-yl]azetidin-1-yl}prop-2-en-1-one]	B (75% > B ≥ 50%)
≤ 10 nM	C=CC(=O)N1CC(c2cc3cc(C(F)(F)F)ccn3n2)C1 [Example 50, 1-(3-(5-(trifluoromethyl)pyrazolo[1,5-a]pyridin-2-yl)azetidin-1-yl)prop-2-en-1-one]	B (75% > B ≥ 50%)
10 to 100 nM	C=CC(=O)N1CC(c2cc3ccc(C(F)(F)F)cn3n2)C1 [Example 51, 1-(3-(6-(trifluoromethyl)pyrazolo[1,5-a]pyridin-2-yl)azetidin-1-yl)prop-2-en-1-one]	B (75% > B ≥ 50%)
10 to 100 nM	C=CC(=O)N1CC(c2cc3ccc(C(F)(F)F)cc3[nH]2)C1 [Example 52, 1-{3-[6-(trifluoromethyl)-1H-indol-2-yl]azetidin-1-yl}prop-2-en-1-one]	A (A ≥ 75%)
100 to 500 nM	C=CC(=O)N1CC(c2cc3ccc(C(F)(F)F)cc3n2C)C1 [Example 53, 1-{3-[1-methyl-6-(trifluoromethyl)indol-2-yl]azetidin-1-yl}prop-2-en-1-one]	B (75% > B ≥ 50%)
100 to 500 nM	C=CC(=O)N1CCC(/C=C/c2cccc(C(F)(F)F)c2)CC1 [Example 54, (E)-1-(4-(3-(trifluoromethyl)styryl)piperidin-1-yl)prop-2-en-1-one]	B (75% > B ≥ 50%)
> 500 nM	C=CC(=O)N1CCC(/C=C\c2cccc(C(F)(F)F)c2)CC1 [Example 55, (Z)-1-(4-(3-(trifluoromethyl)styryl)piperidin-1-yl)prop-2-en-1-one]	C (50% > C ≥ 2%)
10 to 100 nM	C=CC(=O)N1CC(/C=C/c2ccc(C(F)(F)F)cc2)C(n2cccn2)C1 (centres unmarked) [Example 70]	A (A ≥ 75%)
10 to 100 nM	C=CC(=O)N1CCC(C#Cc2ccc(C(F)(F)F)cc2)(OC)CC1 [Example 71, 1-(4-methoxy-4-((4-(trifluoromethyl)phenyl)ethynyl)piperidin-1-yl)prop-2-en-1-one]	B (75% > B ≥ 50%)
10 to 100 nM	C=CC(=O)N1CCC(F)(C#Cc2ccc(C(F)(F)F)cc2)CC1 [Example 72, 1-(4-fluoro-4-((4-(trifluoromethyl)phenyl)ethynyl)piperidin-1-yl)prop-2-en-1-one]	B (75% > B ≥ 50%)
10 to 100 nM	C=CC(=O)N1CCC(O)(C#Cc2ccc(C(F)(F)F)cc2)CC1 [Example 73, 1-(4-hydroxy-4-((4-(trifluoromethyl)phenyl)ethynyl)piperidin-1-yl)prop-2-en-1-one]	A (A ≥ 75%)
≤ 10 nM	C=CC(=O)N1CCC(C)(C#Cc2ccc(C(F)(F)F)cc2)CC1 [Example 74, 1-(4-methyl-4-((4-(trifluoromethyl)phenyl)ethynyl)piperidin-1-yl)prop-2-en-1-one]	B (75% > B ≥ 50%)
10 to 100 nM	C=CC(=O)N1CCCC(C#Cc2cccc(C(F)(F)F)c2)C1 (centres unmarked) [Example 75, 1-(3-((3-(trifluoromethyl)phenyl)ethynyl)piperidin-1-yl)prop-2-en-1-one]	A (A ≥ 75%)
